Measured values as given in patent publication US7868204B2, “Inhibitors of histone deacetylase” (MethylGene Inc., priority 2001, dated 2011).
Like-named read-outs stand apart in the source and are kept apart here.

Key:
[1] = target: T1, cloned recombinant human HDAC-1 (Homo sapiens, UniProt Q13547); assay: Human HDAC-1 enzyme inhibition, Assay 1 ([3H]-acetylated histone substrate, scintillation counting); format: biochemical
T1 construct: made in house; host or cells: Baculovirus insect cell expression system
Method: Assay 1. HDAC inhibitors were screened against a cloned recombinant human HDAC-1 enzyme expressed and purified from a Baculovirus insect cell expression system. […] The mixture was extracted with ethyl acetate and the released [^3H]-acetic acid was quantified by scintillation counting. For inhibition studies, the enzyme was preincubated with compounds at 4° C. for 30 minutes prior to initiation of the enzymatic assay. IC50 values for HDAC enzyme inhibitors were determined by performing dose response curves with individual compounds and determining the concentration of inhibitor producing fifty percent of the maximal inhibition.

[2] = system: HCT116 cells; assay: MTT assay; format: cell-based; conditions: Homo sapiens, HCT116 cells, 72 hours
Method: HCT116 cells (2000/well) were plated into 96-well tissue culture plates one day before compound treatment. Compounds at various concentrations were added to the cells. The cells were incubated for 72 hours at 37° C. in 5% CO2 incubator. MTT (3-[4,5-dimethylthiazol-2-yl]-2,5 diphenyl tetrazolium bromide, Sigma) was added at a final concentration of 0.5 mg/ml and incubated with the cells for 4 hours before one volume of solubilization buffer (50% N,N-dimethylformamide, 20% SDS, pH 4.7) was added onto the cultured cells. […] OD values were converted to cell numbers according to a standard growth curve of the relevant cell line.

[3] = Table 5b, read-out: Human HDAC-1 IC50
[4] = Table 5F, read-out: Human HDAC-1 IC50
[5] = Table 5d, read-out: HDAC-1 IC50
[6] = Table 5c, read-out: Human HDAC-1 IC50

T1 sequence (Q13547 whole entry): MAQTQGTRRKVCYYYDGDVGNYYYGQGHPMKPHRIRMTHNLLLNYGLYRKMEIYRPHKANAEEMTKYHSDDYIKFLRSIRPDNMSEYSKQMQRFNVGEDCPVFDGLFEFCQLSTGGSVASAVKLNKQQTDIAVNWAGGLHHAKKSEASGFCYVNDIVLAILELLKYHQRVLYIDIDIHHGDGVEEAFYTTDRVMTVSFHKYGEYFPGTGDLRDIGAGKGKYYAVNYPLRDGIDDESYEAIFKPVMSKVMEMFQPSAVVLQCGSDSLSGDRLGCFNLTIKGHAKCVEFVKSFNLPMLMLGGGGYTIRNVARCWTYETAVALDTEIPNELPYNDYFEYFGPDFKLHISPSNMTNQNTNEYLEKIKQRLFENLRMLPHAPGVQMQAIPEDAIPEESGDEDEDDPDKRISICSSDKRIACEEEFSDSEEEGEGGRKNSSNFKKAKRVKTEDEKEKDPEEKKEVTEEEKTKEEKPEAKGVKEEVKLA

| Structure (SMILES) | IC50 [1, 4] | IC50 ([2]; HCT-116, 72 h, Table 5F) | IC50 [1, 5] | IC50 ([2]; HCT-116, Table 5d) | also measured |
| --- | --- | --- | --- | --- | --- |
| Cc1nc(NCc2ccc(C(=O)Nc3ccccc3N)cc2)nc(NC2Cc3ccccc3C2)n1 [Cpd 218] | – | – | – | – | IC50 [1, 3]: 0.1 µM; IC50 ([2]; HCT-116, 72 h, Table 5b): 0.5 µM |
| Nc1ccccc1NC(=O)c1ccc(NC(=O)C(F)(F)F)cc1 [Cpd 431, N-(2-Aminophenyl)-4-(2,2,2-trifluoro-acetylamino)-benzamide] | 5 µM | 5 µM | – | – | – |
| Nc1ccccc1NC(=O)/C=C/c1ccc(CNc2cccc(I)c2)cc1 [Cpd 548, N-(2-Amino-phenyl)-3-{4-[(3-iodo-phenylamino)-methyl]-phenyl}-acrylamide] | – | – | 3 µM | 9 µM | – |
| Nc1ccccc1NC(=O)/C=C/c1ccc(CNc2cccc(-c3nnn[nH]3)c2)cc1 [Cpd 543, N-(2-Amino-phenyl)-3-(4-{[3-(1H-tetrazol-5-yl)-phenylamino]-methyl}-phenyl)-acrylamide] | – | – | 15 µM | > 25 µM | – |
| Nc1ccccc1NC(=O)/C=C/c1ccc(CNc2ccc(OC(F)(F)F)cc2)cc1 [Cpd 504, N-(2-Amino-phenyl)-3-{4-[(4-trifluoromethoxy-phenylamino)-methyl]-phenyl}-acrylamide] | – | – | 5 µM | > 25 µM | – |
| Nc1ccccc1NC(=O)c1ccc(CNc2nc(NCCc3cccc(Cl)c3)nc(NC3CC3)n2)cc1 [Cpd 477] | – | – | – | – | IC50 [1, 3]: 1 µM; IC50 ([2]; HCT-116, 72 h, Table 5b): 0.7 µM |
| Nc1ccccc1NC(=O)c1ccc(CNc2ccc3[nH]c(=O)[nH]c3c2)cc1 [Cpd 449, N-(2-Amino-phenyl)-4-[(2-oxo-2,3-dihydro-1H-benzoimidazol-5-ylamino)-methyl]-benzamide] | 1 µM | 6 µM | – | – | – |
| Nc1ccccc1NC(=O)/C=C/c1ccc(NCCCn2ccnc2)nc1 [Cpd 97, N-(2-aminophenyl)-3-[6-(3-imidazol-1-yl-propylamino)-pyridin-3-yl]-acrylamide] | – | – | – | – | IC50 [1, 6]: 10 µM; IC50 ([2]; HCT-116, 72 h, Table 5c): 12 µM |
| Nc1ccccc1NC(=O)c1ccc(C#CC2(O)CCCCC2)nc1 [Cpd 463, N-(2-Amino-phenyl)-6-(1-hydroxy-cyclohexylethynyl)-nicotinamide] | 12 µM | 6 µM | – | – | – |
| Cc1cc(C)cc(NCc2ccc(C(=O)Nc3ccccc3N)cc2)c1 [Cpd 407, N-(2-Amino-phenyl)-4-[(3,5-dimethyl-phenylamino)-methyl]-benzamide] | 3 µM | 2 µM | – | – | – |
| COc1ccc(-c2ccc(/C=C/C(=O)Nc3ccccc3N)cn2)cc1OC [Cpd 569] | – | – | 18 µM | 6 µM | – |
| Nc1ccccc1NC(=O)c1ccc(CNc2ccc(SC(F)(F)F)cc2)cc1 [Cpd 450, N-(2-Amino-phenyl)-4-[(4-trifluoromethylsulfanyl-phenylamino)-methyl]-benzamide] | 3 µM | 2 µM | – | – | – |
| COc1cc(Cl)nc(NCc2ccc(/C=C/C(=O)Nc3ccccc3N)cc2)n1 [Cpd 493, N-(2-Amino-phenyl)-3-{4-[(4-chloro-6-methoxy-pyrimidin-2-ylamino)-methyl]-phenyl]-acrylamide] | – | – | 4 µM | 5 µM | – |
| Nc1ccccc1NC(=O)/C=C/c1ccc(CNc2ccc(Br)cn2)cc1 [Cpd 557, N-(2-Amino-phenyl)-3-{4-[(5-bromo-pyridin-2-ylamino)-methyl]-phenyl}acrylamide] | – | – | 4 µM | 6 µM | – |
| COc1cc(C2CCC(c3ccc(C(=O)Nc4ccccc4N)cc3)O2)cc(OC)c1OC (stereo not shown) [compound 290, N-(2-Amino-phenyl)-4-[5-(3,4,5-trimethoxy-phenyl)-tetrahydro-furan-2-yl]-benzamide] | 11 µM | 3 µM | – | – | – |
| COc1cccc(-c2ccc(C(=O)Nc3ccccc3N)cn2)c1 [Cpd 141, N-(2-Amino-phenyl)-6-(3-methoxyphenyl)-nicotinamide] | – | – | – | – | IC50 ([1]; Table 5E, read-out: Human HDAC-1 IC50): 7 µM; IC50 ([2]; HCT-116, 72 h, Table 5E): 10 µM |
| Nc1ccccc1NC(=O)/C=C/c1ccc(CCNC(=O)OCc2cccnc2)cc1 [Cpd 105] | – | – | – | – | IC50 [1, 6]: 16 µM; IC50 ([2]; HCT-116, 72 h, Table 5c): 14 µM |
| Nc1ccccc1NC(=O)/C=C/c1ccc(CNc2cc([N+](=O)[O-])cc([N+](=O)[O-])c2)cc1 [Cpd 495] | – | – | 4 µM | 7 µM | – |

| Structure (SMILES) | IC50 [1, 4] | IC50 ([2]; HCT-116, 72 h, Table 5F) | IC50 [1, 5] | IC50 ([2]; HCT-116, Table 5d) | also measured |
| --- | --- | --- | --- | --- | --- |
| COc1cc(NCc2ccc(/C=C/C(=O)Nc3cccc(N)c3N)cc2)cc(OC)c1OC [Cpd 564] | – | – | > 25 µM | > 25 µM | – |
| CCCCNc1nc(NCCc2ccccc2)nc(NCc2ccc(C(=O)Nc3ccccc3N)cc2)n1 [Cpd 473] | – | – | – | – | IC50 [1, 3]: 4 µM; IC50 ([2]; HCT-116, 72 h, Table 5b): 3 µM |
| Nc1ccccc1NC(=O)/C=C/c1ccc(CNc2nccc(C(F)(F)F)n2)cc1 [Cpd 529] | – | – | 5 µM | 17 µM | – |
| Nc1ccccc1NC(=O)/C=C/c1ccc(CNc2ccc(Cc3nnn[nH]3)cc2)cc1 [Cpd 544, N-(2-Amino-phenyl)-3-(4-{[4-(1H-tetrazol-5-ylmethyl)-phenylamino]-methyl}-phenyl)-acrylamide] | – | – | 17 µM | 45 µM | – |
| Nc1ccccc1NC(=O)/C=C/c1ccc(CNc2ccc(F)cc2)cc1 [Cpd 554, N-(2-Amino-phenyl)-3-{4-[(4-fluoro-phenylamino)-methyl]-phenyl}-acrylamide] | – | – | 15 µM | 12 µM | – |
| COc1cc(/C=C/C(=O)Nc2ccccc2N)ccc1CNc1cc(OC)c(OC)c(OC)c1 [Cpd 484] | – | – | 20 µM | 12 µM | – |
| Nc1nc(NCc2ccc(C(=O)Nc3ccccc3N)cc2)nc(-c2ccccc2)n1 [Cpd 484] | – | – | – | – | IC50 [1, 3]: 2 µM; IC50 ([2]; HCT-116, 72 h, Table 5b): 0.3 µM |
| COc1ccc(CNc2ccc(C3CC3C(=O)Nc3ccccc3N)cn2)cc1 (stereo not shown) [Cpd 576] | 5 µM | 6 µM | – | – | – |
| COc1cc(/C=C/C(=O)Nc2ccccc2N)cc(OC)c1CNc1cc(OC)c(OC)c(OC)c1 [Cpd 560] | – | – | 21 µM | 6 µM | – |
| Nc1ccccc1NC(=O)/C=C/c1ccc(CNc2ccc([N+](=O)[O-])cc2)cc1 [Cpd 550, N-(2-Amino-phenyl)-3-{4-[(4-nitro-phenylamino)-methyl]-phenyl}-acrylamide] | – | – | 4 µM | 15 µM | – |
| Nc1ccccc1NC(=O)c1ccc(Oc2ccccc2)cc1 [Cpd 366, N-(2-Amino-phenyl)-4-phenoxy-benzamide] | 14 µM | 10 µM | – | – | – |
| Nc1ccccc1NC(=O)c1ccc(NCCn2cnc3ccccc3c2=O)nc1 [Cpd 446, N-(2-Amino-phenyl)-6-[2-(4-oxo-4H-quinazolin-3-yl)-ethylamino]-nicotinamide] | 21 µM | 7 µM | – | – | – |
| COc1ccc(CCNc2nc(NCc3ccc(C(=O)Nc4ccccc4N)cc3)nc(NC3CC3)n2)cc1OC [Cpd 478] | – | – | – | – | IC50 [1, 3]: 3 µM; IC50 ([2]; HCT-116, 72 h, Table 5b): 0.7 µM |
| COc1cc(OCc2ccc(/C=C/C(=O)Nc3ccccc3N)cc2)cc(OC)c1OC [Cpd 497, N-(2-Amino-phenyl)-3-[4-(3,4,5-trimethoxy-phenoxymethyl)-phenyl]-acrylamide] | – | – | 15 µM | 6 µM | – |
| CNc1nc2cc(NCc3ccc(C(=O)Nc4ccccc4N)cc3)ccc2s1 [Cpd 456, N-(2-Amino-phenyl)-4-[(2-methylamino-benzothiazol-5-ylamino)-methyl]-benzamide] | 3 µM | 0.4 µM | – | – | – |
| COc1cc(NCc2ccc(C(=O)Nc3ccccc3N)cc2)c(C(=O)O)cc1OC [Cpd 406, 2-[4-(2-Amino-phenylcarbamoyl)-benzylamino]-4,5-dimethoxy-benzoic acid] | 3 µM | 11 µM | – | – | – |
| CSc1ccc(NCc2ccc(/C=C/C(=O)Nc3ccccc3N)cc2)cc1F [Cpd 565, N-(2-Amino-phenyl)-3-{4-[(3-fluoro4-methylsulfanyl-phenylamino)-methyl]-phenyl}-acrylamide] | – | – | 5 µM | 17 µM | – |
